Measurements taken from US8623904B2, “Use of tetramic acid derivatives for controlling pests by watering or droplet application” (Bayer CropScience AG, priority 2007, dated 2014).

Key:
Oidium Iycopersicum = experiment: Drench application to tomato plants on rock wool, infection with powdery mildew Oidium Iycopersicum, efficacy by Abbott formula; format: in vivo; settings: 40 mg of active compound/plant, 240 SC, watered 100 ml; for Efficacy (% Abbott) against Oidium Iycopersicum 14 d: 14 d after infection; for Efficacy (% Abbott) against Oidium Iycopersicum 23 d: 23 d after infection; for Efficacy (% Abbott) against Oidium Iycopersicum 28 d new growth / Efficacy (% Abbott) against Oidium Iycopersicum 28 d old leaves: 28 d after infection
Protocol: In each case three tomato plants of the cultivar “Hoffmanns Rendita” on rock wool are, in two replications, watered one week after transplantation with in each case 100 ml of active compound solution comprising the active compound (II) (formulation: 240 SC) at the stated application rate. The greenhouse temperature is 20° C. during the day and 17° C. at night. Infection with the powdery mildew Oidium Iycopersicum is in each case carried out two and seven days after the active compound application. Evaluation is in each case carried out 14, 23, 28, 35 days after the respective infection by determining the efficacy on the old leaves and the new growth using the Abbott formula*.
(§1) Calculation of the efficacy according to Abbott:
(§2) [formula] where X=value for the control and Y=value for the compound tested

Leveillula taurica = experiment: Drench application to bell pepper plants, natural infection with Leveillula taurica, efficacy by Abbott formula; format: in vivo; settings: 240 SC, watered 50 ml, bell pepper "Shishitou aoi", 21 days after treatment
Protocol: 8 plots each 2.25 m^2 in size with bell pepper plants of the cultivar “Shishitou aoi” are, in two replications, watered with 50 ml of an active compound solution comprising the active compound (II) (formulation: 240 SC) at the stated application rate. Following a severe natural infection with Leveillula taurica, evaluation is carried out 21 days after the treatment by determining the efficacy using the Abbott formula*.
as §1, §2

Q: Which “Efficacy (% Abbott) against Oidium Iycopersicum 14 d” value (Oidium Iycopersicum; 2 d prior to infection) does the source give for `CCOC(=O)OC1=C(c2cc(C)ccc2C)C(=O)N[C@]12CC[C@@H](OC)CC2` [Active compound (II)] here?
A: 33 % Abbott

Q: What about the “Efficacy (% Abbott) against Oidium Iycopersicum 23 d” value (Oidium Iycopersicum; 2 d prior to infection) of the same compound?
A: 40 % Abbott

Q: What about the “Efficacy (% Abbott) against Oidium Iycopersicum 28 d new growth” value (Oidium Iycopersicum; 2 d prior to infection) of the same compound?
A: 65 % Abbott

Q: What about the “Efficacy (% Abbott) against Oidium Iycopersicum 28 d old leaves” value (Oidium Iycopersicum; 2 d prior to infection) of the same compound?
A: 41 % Abbott

Q: And the “Efficacy (% Abbott) against Oidium Iycopersicum 14 d” value (Oidium Iycopersicum; 7 d prior to infection)?
A: 45 % Abbott

Q: What about the “Efficacy (% Abbott) against Oidium Iycopersicum 23 d” value (Oidium Iycopersicum; 7 d prior to infection) of the same compound?
A: 45 % Abbott

Q: What about the “Efficacy (% Abbott) against Oidium Iycopersicum 28 d new growth” value (Oidium Iycopersicum; 7 d prior to infection) of the same compound?
A: 77 % Abbott

Q: And the “Efficacy (% Abbott) against Oidium Iycopersicum 28 d old leaves” value (Oidium Iycopersicum; 7 d prior to infection)?
A: 45 % Abbott

Q: What about the “Efficacy (% Abbott) against Leveillula taurica 21 d” value (Leveillula taurica; 40 mg of active compound/plant) of the same compound?
A: 87.4 % Abbott

Q: And the “Efficacy (% Abbott) against Leveillula taurica 21 d” value (Leveillula taurica; 60 mg of active compound/plant)?
A: 100 % Abbott

Q: And the “Efficacy (% Abbott) against Leveillula taurica 21 d” value (Leveillula taurica; 80 mg of active compound/plant)?
A: 100 % Abbott
